Molecules are shown by their SMILES. Where only a bound is given, the exact number is not on record here.

The test system of one data set is MKN45 cells. The experiment in a line: Test D: cellular proliferation by 14C-thymidine pulse, MKN45 cells. The following applies: Homo sapiens, MKN-45, cellular proliferation by 14C-thymidine pulse; cell line not stated (HCT116 or MKN45). The data set is classed as cell-based. The method in brief: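 MKN45 cells (7500/well, RPMI + 10% foetal calf serum) treated with 10 concentrations, 10000 to 0.3 nM in 3-fold steps, duplicate. 14C-thymidine (0.1 μCi/well) added at 72 h; incorporation counted after 24 h pulse, 96 h total treatment.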

In another data set the target is T1, c-MET (Homo sapiens, UniProt P08581).
T1 construct: The recombinant DNA His-Tev-MET (956-1390) in pFastBac(Invitrogen); His (N, cleaved yes); Tev (TEV protease site) (N, cleaved yes); made in house; host or cells: SF21 insect cells (baculovirus, pFastBac)
T1 sequence (P08581 956-1390): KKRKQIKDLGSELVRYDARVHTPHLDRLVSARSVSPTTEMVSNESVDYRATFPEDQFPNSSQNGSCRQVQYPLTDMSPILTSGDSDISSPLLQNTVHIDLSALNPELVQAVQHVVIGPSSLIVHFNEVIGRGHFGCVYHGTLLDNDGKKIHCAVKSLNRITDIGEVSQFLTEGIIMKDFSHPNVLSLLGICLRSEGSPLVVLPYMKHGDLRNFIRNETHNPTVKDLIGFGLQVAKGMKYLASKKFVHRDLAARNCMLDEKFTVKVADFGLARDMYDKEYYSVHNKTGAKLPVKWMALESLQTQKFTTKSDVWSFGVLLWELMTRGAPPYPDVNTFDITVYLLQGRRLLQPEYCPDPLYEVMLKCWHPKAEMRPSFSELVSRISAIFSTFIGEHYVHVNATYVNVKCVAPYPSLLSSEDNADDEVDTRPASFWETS
The experiment in a line: Test A: HTRF Met test in 96-well format. The data set is classed as biochemical. The method in brief: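 The kinase was the Sf21-expressed MET cytoplasmic domain (956–1390), His tag removed, used at 5 nM with compound (0.17 nM–10 µM, 3% DMSO) in 10 mM MOPS pH 7.4. Poly-GAT 1 µg/ml, 10 µM ATP and 5 mM MgCl2 reacted 10 min at RT. After an EDTA stop, phosphotyrosine was detected by HTRF (665/620 ratio).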

`COCCCNC(=O)Nc1nc2cc(F)c(OC(C)c3c(Cl)ccc(F)c3Cl)cc2s1` (stereo not drawn) [Example 104, 1-{6-[1-(2,6-dichloro-3-fluorophenyl)ethoxy]-5-fluoro-1,3-benzothiazol-2-yl}-3-(3-methoxypropyl)urea] registered a melting point of 175 °C. In the data set on MKN45 cells, the concentration for half-maximal inhibition (IC50) fell in the range of 0.5 to 10 µM. The same compound had an IC50 on c-MET of less than 0.1 µM.

`CC(Oc1cc2sc(NC(=O)NCCN3CCOCC3)nc2cc1Cl)c1c(Cl)ccc(F)c1Cl` (stereo not drawn) [Example 106, 1-{5-chloro-6-[1-(2,6-dichloro-3-fluorophenyl)ethoxy]-1,3-benzothiazol-2-yl}-3-[2-(morpholin-4-yl)ethyl]urea] registered a melting point of 196 to 198 °C. The compound also returned an IC50 with MKN45 cells of 0.5 to 10 µM. On c-MET, the IC50 was less than 0.1 µM.

For the compound `CC(Oc1cc2sc(NC(=O)NCC(=O)N3CCN(C)CC3)nc2cc1F)c1c(Cl)ccc(F)c1Cl` (stereo not drawn) [Example 129, 1-{6-[1-(2,6-dichloro-3-fluorophenyl)ethoxy]-5-fluoro-1,3-benzothiazol-2-yl}-3-[2-(4-methylpiperazin-1-yl)-2-oxoethyl]urea], the melting point is 235 to 238 °C. The IC50 with MKN45 cells lay within 0.5 to 10 µM. At c-MET, this compound had an IC50 of less than 0.1 µM.

As to `CC(Oc1cc2sc(NC(=O)NCCOCC3CC3)nc2cc1F)c1c(Cl)ccc(F)c1Cl` (stereo not drawn) [Example 103, 1-[2-(cyclopropylmethoxy)ethyl]-3-{6-[1-(2,6-dichloro-3-fluorophenyl)ethoxy]-5-fluoro-1,3-benzothiazol-2-yl}urea], the melting point was in the range of 178 to 184 °C. This compound registered an IC50 in the data set with MKN45 cells of 0.5 to 10 µM. For the same compound, the IC50 against c-MET is less than 0.1 µM.

`CC(Oc1cc2sc(NC(=O)NCCN3CCOCC3)nc2cc1F)c1c(Cl)ccc(F)c1Cl` (stereo not drawn) [Example 31, 1-{6-[1-(2,6-dichloro-3-fluorophenyl)ethoxy]-5-fluoro-1,3-benzothiazol-2-yl}-3-(2-morpholin-4-ylethyl)urea]: the melting point is 226 to 228 °C. In addition, the IC50 in the data set with MKN45 cells lay in the range of 0.5 to 10 µM. On c-MET, the concentration for half-maximal inhibition (IC50) was less than 0.1 µM.

The record behind these values is US8188078B2 (Sanofi-Aventis, priority 2007, dated 2012).
